Reference: patent US20260200926A1, “TREM2 MODULATORS” (Muna Therapeutics ApS, priority 2022, published 2026)
Like-named read-outs stand apart in the source and are kept apart here.

Biological target: T1, Human TREM2 (Homo sapiens, UniProt Q9NZC2)
T1 construct: expressed in transfected cells
Test: Human TREM2 activity: cellular phosphorylation of Syk (AlphaLISA SureFire Ultra p-SYK) in HEK293/DAP12+TREM2 stable cell line
Format: cell-based
Conditions: for Emax: maximal response relative to reference agonist example 1B (remaining examples); for EC50: phospho-Syk AlphaLISA signal, HEK293/DAP12+TREM2 cells, concentration giving 50% of maximal response, read-out: EC50
From the text: Human TREM2, in vitro Measurement of Triggering Receptor Expressed on Myeloid Cells 2 activity using cellular phosphorylation of Spleen Tyrosine Kinase (“Syk”) Assay
HEK-293 cells were co-transfected with separate plasmids encoding TREM2 and DAP12 to generate a stable cell line. After antibiotic selection, functional clone pool analysis and two successive limiting dilutions, the final clone “HEK293/DAP12+TREM2” underwent a qPCR analysis and a pharmacological validation.
TREM2 signaling through DAP12 was monitored in the HEK293/DAP12+TREM2 stable cell line by measuring the phosphorylation levels of the Syk kinase using the commercially available AlphaLISA SureFire Ultra p-SYK (Tyr525/526) Assay Kit (PerkinElmer #ALSU-PSYK), based on the Perkin Elmer AlphaScreen/AlphaLISA technology.
Compounds are transferred to the test plate and tested in full dose response, 8 concentrations in quadruplicate data points. Compound serial dilutions were performed at Cybi-Felix instrument in 100% DMSO and the dose response curves were assembled in automated fashion in 384MPT at Hamilton STARlet instrument. All the stock solutions were prepared at 20 mM in 100% DMSO. For compounds testing, the starting concentration was 100 μM, dilution steps 1:6. […] Finally, a 384MPT reformatted for all compounds at 8 concentrations, quadruplicates, was used as “mother to child” process with a CyBi®-Well dispenser in which 1 μL of each compound was moved into a destination plate pre-filled with 65.6 μL of EMEM cell culture medium (BIOWHITTAKER_cat.BE12-125F), thus obtaining 3× concentrated compounds working solution. In columns 1-2 and 23-24 the control wells were added. In particular, dose response curves of a reference control agonist were included in column 1 and 24 as reference control agonist (Reference control agonists used include Human TREM2 polyclonal Antibody AF1828: R&D Systems; Human TREM2 monoclonal Antibody MAB1828: R&D Systems). The dose response curves were tested starting at 30 μM, dilution step 1:6. Both “source” compound plate and “destination” compound plate were barcoded and a relationship between the two plates was thus generated.
HEK293/DAP12+TREM2 cells were cultured in EMEM medium supplemented with IX Penicillin/Streptomycin (BIOWHITTAKER_cat.DE17-602E), ULTRAGLUTAMINE I 200 mM, 10% Fetal Bovine Serum plus antibiotics referred to as “HEK293 Culture Medium”. The day before the experiment, cells were detached by gentle wash with DPBS, followed by 5 min incubation at 37° C. with Trypsin solution. Cells were then diluted in HEK293 Culture Medium without antibiotics, counted and seeded into 384-well poly-D-Lysine coated microplates black/clear bottom (GREINER 781946) at a density of 10,000 cells/well in 25 μL/well by the use of a MATRIX WellMate dispenser. Plates were placed into a humidified cell culture incubator at 37° C. with 5% CO2 until the experimental day. 20-24 hours after seeding mature medium was removed and replaced with 10 μL/well of EMEM cell medium supplemented with 0.1% Pluronic F-68 non-ionic surfactant (Thermofisher, 24040032), referred to as “Assay Buffer”, using the CyBi®-Well instrument. Then 5 μL/well of Assay Buffer containing 3× concentrated test compounds or the reference control agonist (in 0.5% final DMSO concentration) were added to the cells with the CyBi®-Well instrument. Cell plates were incubated for 30 min into a humidified cell culture incubator at 37° C. with 5% CO2·, then the medium was removed by manually discard. 20 μL/well of lysis buffer were dispensed using the CyBi®-Well instrument and plates were incubated for 10 min at room temperature on a plate shaker (350 rpm). Then, 10 μL/well of lysate were transferred to the Alpha plates. The CyBi®-Well instrument was used to dispense 5 μL/well of AlphaLISA Acceptor Bead Solution in IX Immunoassay buffer (Perkin Elmer AL000F). Then the plates were sealed with Heat sealing foil, shaked for 2 minutes (350 rpm) and incubated for 1 hour at room temperature.

T1 sequence (Q9NZC2 19-230): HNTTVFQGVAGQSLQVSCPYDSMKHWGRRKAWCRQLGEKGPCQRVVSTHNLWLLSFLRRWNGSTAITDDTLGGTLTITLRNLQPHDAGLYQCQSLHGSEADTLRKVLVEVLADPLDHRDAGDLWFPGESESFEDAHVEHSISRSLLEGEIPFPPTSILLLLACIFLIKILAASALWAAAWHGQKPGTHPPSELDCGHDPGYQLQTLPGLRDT
T1 sequence (O43914 22-113 partner): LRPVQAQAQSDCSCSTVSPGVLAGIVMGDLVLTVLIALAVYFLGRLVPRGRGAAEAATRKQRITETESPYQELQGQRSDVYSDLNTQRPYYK

| Structure (SMILES) | Emax (HEK293, read-out: Emax) [%] | EC50 [nM] | Emax |
| --- | --- | --- | --- |
| Cc1nc2c(C3CCC(C)CC3)nc(N3CCOC(c4cnn(C)c4)C3)nc2c(=O)n1C (single isomer, unassigned) [Example 71A] | 75 to 110 | 10 to 100 |  |
| Cc1nc2c(nc(N3CCO[C@@H](c4cnn(C)c4)C3)nc2[C@H]2CC[C@H](C)CC2)c(=O)n1C (single isomer, unassigned) [Example 71B] |  | 10 to 100 | + (<75%) |
| Cc1nc2c(-c3ccc(C(F)(F)F)nc3)nc([C@@H]3CCO[C@H](c4cnn(C)c4)C3)nc2c(=O)n1C (single isomer, unassigned) [Example 88A] | < 75 | > 1000 |  |
| Cc1nc2c(-c3ccc(C(F)(F)F)nc3)nc([C@H]3CCO[C@@H](c4cnn(C)c4)C3)nc2c(=O)n1C (single isomer, unassigned) [Example 88B] | < 75 | > 1000 |  |
| Cc1nc2c(-c3ccc(Cl)cc3F)nc(N3C[C@H](c4cnn(C)c4)OC(C)(C)C3)nc2c(=O)n1C (single isomer, unassigned) [Example 89B] | 75 to 110 | 10 to 100 |  |
| Cc1nc2c(-c3ccc(C(F)(F)F)nc3)nc(N3CCC(F)(F)[C@H](c4cnn(C)c4)C3)nc2c(=O)n1C (single isomer, unassigned) [Example 92] | < 75 | 10 to 100 |  |
| Cc1nc2c(-c3ccc(C(F)(F)F)nc3)nc(N3CCC(F)(F)[C@@H](c4cnn(C)c4)C3)nc2c(=O)n1C (single isomer, unassigned) [Example 93] | 75 to 110 | 10 to 100 |  |
| Cc1cc([C@H]2C[C@@H](c3nc(-c4ccc(Cl)cc4F)c4nc(C)n(C)c(=O)c4n3)CCO2)ccn1 (single isomer, unassigned) [Example 94] | 75 to 110 | 1 to 10 |  |
| Cc1cc([C@H]2C[C@H](c3nc(-c4ccc(Cl)cc4F)c4nc(C)n(C)c(=O)c4n3)CCO2)ccn1 (single isomer, unassigned) [Example 95] | < 75 | 100 to 1000 |  |
| Cc1nc2c(-c3cc(F)c(F)cc3F)nc([C@@H]3CCO[C@H](c4cnn(C5CC5)c4)C3)nc2c(=O)n1C (single isomer, unassigned) [Example 97A] | 75 to 110 | 10 to 100 |  |
| Cc1nc2c(-c3cc(F)c(F)cc3F)nc([C@H]3CCO[C@@H](c4cnn(C5CC5)c4)C3)nc2c(=O)n1C (single isomer, unassigned) [Example 97B] | < 75 | > 1000 |  |
| Cc1nc2c(-c3ccc(C(F)(F)F)nc3)nc([C@@H]3CCO[C@H](c4cnn(C5CC5)c4)C3)nc2c(=O)n1C (single isomer, unassigned) [Example 98A] | < 75 | 10 to 100 |  |
| Cc1nc2c(-c3ccc(C(F)(F)F)nc3)nc([C@H]3CCO[C@@H](c4cnn(C5CC5)c4)C3)nc2c(=O)n1C (single isomer, unassigned) [Example 98B] | < 75 | > 1000 |  |
| Cc1nc2c(-c3ccc(C(F)(F)F)cc3F)nc(N3C[C@@H](c4cnn(C)c4)OC(C)(C)C3)nc2c(=O)n1C (single isomer, unassigned) [Example 100A] | 75 to 110 | 10 to 100 |  |
| Cc1nc2c(-c3ccc(C(F)(F)F)cc3F)nc(N3C[C@H](c4cnn(C)c4)OC(C)(C)C3)nc2c(=O)n1C (single isomer, unassigned) [Example 100B] | < 75 | 100 to 1000 |  |
| Cc1nc2c(-c3cc(F)c(F)cc3F)nc(N3C[C@@H](c4cnn(C)c4)OC(C)(C)C3)nc2c(=O)n1C (single isomer, unassigned) [Example 101A] | 75 to 110 | 10 to 100 |  |
| Cc1nc2c(-c3cc(F)c(F)cc3F)nc(N3C[C@H](c4cnn(C)c4)OC(C)(C)C3)nc2c(=O)n1C (single isomer, unassigned) [Example 101B] | < 75 | > 1000 |  |

| Structure (SMILES) | Emax (HEK293, read-out: Emax) [%] | EC50 [nM] | Emax |
| --- | --- | --- | --- |
| Cc1nc2c(-c3ccc(C(F)(F)F)nc3)nc(N3C[C@@H](c4cnn(C)c4)OC(C)(C)C3)nc2c(=O)n1C (single isomer, unassigned) [Example 102A] | 75 to 110 | 10 to 100 |  |
| Cc1nc2c(-c3ccc(C(F)(F)F)nc3)nc(N3C[C@H](c4cnn(C)c4)OC(C)(C)C3)nc2c(=O)n1C (single isomer, unassigned) [Example 102B] | < 75 | > 1000 |  |
| Cn1cc([C@H]2CN(c3nc(-c4ccc(Cl)cc4F)c4nc(C(F)(F)F)n(C)c(=O)c4n3)CCO2)cn1 (single isomer, unassigned) [Example 103] | 75 to 110 | 1 to 10 |  |
| Cc1nc2c(-c3ccc(Cl)cc3F)nc(N3CCO[C@H](c4cnn(C(F)(F)F)c4)C3)nc2c(=O)n1C (single isomer, unassigned) [Example 107A] | 75 to 110 | 10 to 100 |  |
| Cc1nc2c(-c3ccc(Cl)cc3F)nc(N3CCO[C@@H](c4cnn(C(F)(F)F)c4)C3)nc2c(=O)n1C (single isomer, unassigned) [Example 107B] | 75 to 110 | 100 to 1000 |  |
| Cc1nc2c(-c3ccc(Cl)cc3F)nc(N3C[C@@H](c4cnn(C)c4)OC4(CC4)C3)nc2c(=O)n1C (single isomer, unassigned) [Example 108A] | 75 to 110 | 1 to 10 |  |
| Cc1nc2c(-c3ccc(Cl)cc3F)nc(N3C[C@H](c4cnn(C)c4)OC4(CC4)C3)nc2c(=O)n1C (single isomer, unassigned) [Example 108B] | < 75 | 100 to 1000 |  |
| Cc1nc2c(-c3ccc(Cl)cc3F)nc(N3C[C@@H](c4cnn(C)c4)OC4(CCC4)C3)nc2c(=O)n1C (single isomer, unassigned) [Example 109A] | 75 to 110 | 1 to 10 |  |
| Cc1nc2c(-c3ccc(Cl)cc3F)nc(N3C[C@H](c4cnn(C)c4)OC4(CCC4)C3)nc2c(=O)n1C (single isomer, unassigned) [Example 109B] | < 75 | 100 to 1000 |  |
| Cc1nc2c(-c3ccc(Cl)cc3F)nc(N3C[C@@H](c4cnn(C5CC5)c4)OC(C)(C)C3)nc2c(=O)n1C (single isomer, unassigned) [Example 110A] | 75 to 110 | 1 to 10 |  |
| Cc1nc2c(-c3ccc(Cl)cc3F)nc(N3C[C@H](c4cnn(C5CC5)c4)OC(C)(C)C3)nc2c(=O)n1C (single isomer, unassigned) [Example 110B] | < 75 | 10 to 100 |  |
| Cc1nc2c(-c3ccc(Cl)cc3F)nc([C@H]3C[C@@H](c4cnn(C)c4)OC(C)(C)C3)nc2c(=O)n1C (single isomer, unassigned) [Example 111A] | 75 to 110 | 10 to 100 |  |
| Cc1nc2c(-c3ccc(Cl)cc3F)nc([C@@H]3C[C@H](c4cnn(C)c4)OC(C)(C)C3)nc2c(=O)n1C (single isomer, unassigned) [Example 111B] | < 75 | 100 to 1000 |  |
| Cc1nc2c(-c3ccc(Cl)cc3F)nc(N3C[C@@H](c4cnn(C)c4)OC(C)(C)C3)cc2c(=O)n1C (single isomer, unassigned) [Example 112A] | 75 to 110 | 10 to 100 |  |
| Cc1nc2c(-c3ccc(Cl)cc3F)nc(N3C[C@H](c4cnn(C)c4)OC(C)(C)C3)cc2c(=O)n1C (single isomer, unassigned) [Example 112B] | < 75 | 100 to 1000 |  |
| Cc1nc2c(-c3ccc(Cl)cc3F)nc([C@]34CCO[C@H](c5cnn(C6CC6)c5)[C@H]3C4)nc2c(=O)n1C (single isomer, unassigned) [Example 116A] | < 75 | 100 to 1000 |  |
